Data reported in PubChem BioAssay AID2060498 (Molecular Pharmacology Branch, DTP, NCI, 2025).

Test system: 171881-019-R-J1-PDC tumor spheroids, viability
Test: Anticancer human tumor 171881-019-R-J1-PDC patient-derived invasive breast carcinoma cell line growth inhibition [GQUAD]
Conditions: spheroids with HUVEC and MSC; for IC50: curve of first compound; for viability, T/C: stronger effect = lower value
Procedure, shortened: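 Viability of tumor cells grown as complex spheroids with endothelial and stromal cells, exposed to drug combinations. Top concentration at or near clinical Cmax (else 10 microM), diluted in half-log increments.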

[1] = second compound 0.0316 µM, first compound 0.0316 µM
[2] = second compound 0.0316 µM, first compound 0.316 µM
[3] = second compound 0.1 µM, first compound 0.0316 µM
[4] = second compound 0.1 µM, first compound 0.316 µM
[5] = second compound 0.316 µM, first compound 0.0316 µM
[6] = second compound 0.316 µM, first compound 0.316 µM
[7] = second compound 1 µM, first compound 0.0316 µM
[8] = second compound 1 µM, first compound 0.316 µM
[9] = second compound 3.16 µM, first compound 0.0316 µM
[10] = second compound 3.16 µM, first compound 0.316 µM
[11] = second compound 10 µM, first compound 0.0316 µM
[12] = second compound 10 µM, first compound 0.316 µM
[13] = second compound 0.0316 µM, first compound 0.000999 µM
[14] = second compound 0.0316 µM, first compound 0.00316 µM
[15] = second compound 0.0316 µM, first compound 0.00999 µM
[16] = second compound 0.0316 µM, first compound 0.0999 µM
[17] = second compound 0.1 µM, first compound 0.000999 µM
[18] = second compound 0.1 µM, first compound 0.00316 µM
[19] = second compound 0.1 µM, first compound 0.00999 µM
[20] = second compound 0.1 µM, first compound 0.0999 µM
[21] = second compound 0.316 µM, first compound 0.000999 µM
[22] = second compound 0.316 µM, first compound 0.00316 µM
[23] = second compound 0.316 µM, first compound 0.00999 µM
[24] = second compound 0.316 µM, first compound 0.0999 µM
[25] = second compound 1 µM, first compound 0.000999 µM
[26] = second compound 1 µM, first compound 0.00316 µM
[27] = second compound 1 µM, first compound 0.00999 µM
[28] = second compound 1 µM, first compound 0.0999 µM
[29] = second compound 3.16 µM, first compound 0.000999 µM
[30] = second compound 3.16 µM, first compound 0.00316 µM
[31] = second compound 3.16 µM, first compound 0.00999 µM
[32] = second compound 3.16 µM, first compound 0.0999 µM
[33] = second compound 10 µM, first compound 0.000999 µM
[34] = second compound 10 µM, first compound 0.00316 µM
[35] = second compound 10 µM, first compound 0.00999 µM
[36] = second compound 10 µM, first compound 0.0999 µM
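Wherever viability, T/C is given: 100% = DMSO vehicle control viability.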

Molecule `C=CC(=O)N1CCN(c2nc(=O)n(-c3c(C)ccnc3C(C)C)c3nc(-c4c(O)cccc4F)c(F)cc23)C(C)C1` (stereo unspecified) + Cc1cnc(CNC(=O)c2c(=O)c3ccc(N4CCCN(C)CC4)nc3n3c2sc2ccccc23)cn1 has an IC50 (second compound 0.0316 µM) of over 10000 nM, an IC50 (second compound 0.1 µM) of over 10000 nM and an IC50 (second compound 0.316 µM) of over 10000 nM. It also gave an IC50 (second compound 1 µM) of over 10000 nM, an IC50 (second compound 3.16 µM) of over 10000 nM and an IC50 (second compound 10 µM) of over 10000 nM. The viability, T/C [1] was 113%, the viability, T/C (second compound 0.0316 µM, first compound 0.1 µM) was 92.9% and the viability, T/C [2] was 100%. For the same molecule, the viability, T/C (second compound 0.0316 µM, first compound 1 µM) was 103%, the viability, T/C (second compound 0.0316 µM, first compound 3.16 µM) was 87.2% and the viability, T/C (second compound 0.0316 µM, first compound 10 µM) was 50.9%. The viability, T/C [3] was 88.3%, the viability, T/C (second compound 0.1 µM, first compound 0.1 µM) was 90.8% and the viability, T/C [4] was 78.4%. The viability, T/C (second compound 0.1 µM, first compound 1 µM) was 93.2%, the viability, T/C (second compound 0.1 µM, first compound 3.16 µM) was 81.6% and the viability, T/C (second compound 0.1 µM, first compound 10 µM) was 55.8%. For the same molecule, the viability, T/C [5] was 79.2%, the viability, T/C (second compound 0.316 µM, first compound 0.1 µM) was 80.4% and the viability, T/C [6] was 80.9%. For the same molecule, the viability, T/C (second compound 0.316 µM, first compound 1 µM) was 82.2%, the viability, T/C (second compound 0.316 µM, first compound 3.16 µM) was 82.6% and the viability, T/C (second compound 0.316 µM, first compound 10 µM) was 63.4%. For the same molecule, the viability, T/C [7] was 73.4%, the viability, T/C (second compound 1 µM, first compound 0.1 µM) was 63.2% and the viability, T/C [8] was 77.7%. The viability, T/C (second compound 1 µM, first compound 1 µM) was 78.1%, the viability, T/C (second compound 1 µM, first compound 3.16 µM) was 81.8% and the viability, T/C (second compound 1 µM, first compound 10 µM) was 66.5%. It also gave a viability, T/C [9] of 70.6%, a viability, T/C (second compound 3.16 µM, first compound 0.1 µM) of 67.5% and a viability, T/C [10] of 73.2%. The viability, T/C (second compound 3.16 µM, first compound 1 µM) was 66.3%, the viability, T/C (second compound 3.16 µM, first compound 3.16 µM) was 83.3% and the viability, T/C (second compound 3.16 µM, first compound 10 µM) was 68.9%. It also gave a viability, T/C [11] of 61.2%, a viability, T/C (second compound 10 µM, first compound 0.1 µM) of 65.1% and a viability, T/C [12] of 65.7%. For the same molecule, the viability, T/C (second compound 10 µM, first compound 1 µM) was 74.5%, the viability, T/C (second compound 10 µM, first compound 3.16 µM) was 81.7% and the viability, T/C (second compound 10 µM, first compound 10 µM) was 68%.
Work on `CCc1c2c(nc3ccc(O)cc13)-c1cc3c(c(=O)n1C2)COC(=O)[C@]3(O)CC` + Cc1cnc(CNC(=O)c2c(=O)c3ccc(N4CCCN(C)CC4)nc3n3c2sc2ccccc23)cn1 yielded an IC50 (second compound 0.0316 µM) of 2.09 nM, an IC50 (second compound 0.1 µM) of 3.31 nM and an IC50 (second compound 0.316 µM) of 5.81 nM. The IC50 (second compound 1 µM) was 8.53 nM, the IC50 (second compound 3.16 µM) was 7.26 nM and the IC50 (second compound 10 µM) was 5.9 nM. It also gave a viability, T/C [13] of 62.6%, a viability, T/C [14] of 39.1% and a viability, T/C [15] of 36.5%. The viability, T/C [1] was 30.9%, the viability, T/C [16] was 26.2% and the viability, T/C [2] was 19.9%. The viability, T/C [17] was 57.7%, the viability, T/C [18] was 49.3% and the viability, T/C [19] was 43.5%. It also gave a viability, T/C [3] of 35.3%, a viability, T/C [20] of 26.4% and a viability, T/C [4] of 20.2%. The viability, T/C [21] was 61.6%, the viability, T/C [22] was 55.5% and the viability, T/C [23] was 46.1%. It also gave a viability, T/C [5] of 35.5%, a viability, T/C [24] of 27.7% and a viability, T/C [6] of 18.8%. For the same molecule, the viability, T/C [25] was 60.3%, the viability, T/C [26] was 53.2% and the viability, T/C [27] was 51.6%. For the same molecule, the viability, T/C [7] was 34.3%, the viability, T/C [28] was 24% and the viability, T/C [8] was 15.8%. For the same molecule, the viability, T/C [29] was 60.8%, the viability, T/C [30] was 50.1% and the viability, T/C [31] was 52.9%. It also gave a viability, T/C [9] of 35.4%, a viability, T/C [32] of 26% and a viability, T/C [10] of 13.8%. It also gave a viability, T/C [33] of 52.3%, a viability, T/C [34] of 55.1% and a viability, T/C [35] of 47.4%. For the same molecule, the viability, T/C [11] was 37.3%, the viability, T/C [36] was 24.8% and the viability, T/C [12] was 12.6%.
`Cn1ncnc1[C@H]1c2n[nH]c(=O)c3cc(F)cc(c23)N[C@@H]1c1ccc(F)cc1` + Cc1cnc(CNC(=O)c2c(=O)c3ccc(N4CCCN(C)CC4)nc3n3c2sc2ccccc23)cn1 showed an IC50 (second compound 0.0316 µM) of over 316 nM, an IC50 (second compound 0.1 µM) of over 316 nM and an IC50 (second compound 0.316 µM) of over 316 nM. For the same molecule, the IC50 (second compound 1 µM) was over 316 nM, the IC50 (second compound 3.16 µM) was over 316 nM and the IC50 (second compound 10 µM) was over 316 nM. The viability, T/C [13] was 94.5%, the viability, T/C [14] was 86.1% and the viability, T/C [15] was 95.2%. It also gave a viability, T/C [1] of 87.2%, a viability, T/C [16] of 79.1% and a viability, T/C [2] of 73.6%. For the same molecule, the viability, T/C [17] was 82.2%, the viability, T/C [18] was 83.2% and the viability, T/C [19] was 82.4%. It also gave a viability, T/C [3] of 76%, a viability, T/C [20] of 63.3% and a viability, T/C [4] of 59.9%. The viability, T/C [21] was 73.7%, the viability, T/C [22] was 74.3% and the viability, T/C [23] was 67.5%. The viability, T/C [5] was 63.5%, the viability, T/C [24] was 64.4% and the viability, T/C [6] was 65.1%. For the same molecule, the viability, T/C [25] was 68%, the viability, T/C [26] was 59.8% and the viability, T/C [27] was 70.4%. It also gave a viability, T/C [7] of 63.5%, a viability, T/C [28] of 63.5% and a viability, T/C [8] of 61.9%. It also gave a viability, T/C [29] of 61.3%, a viability, T/C [30] of 60.1% and a viability, T/C [31] of 61.2%. For the same molecule, the viability, T/C [9] was 64.7%, the viability, T/C [32] was 65.1% and the viability, T/C [10] was 59.1%. For the same molecule, the viability, T/C [33] was 58.6%, the viability, T/C [34] was 63% and the viability, T/C [35] was 60.4%. The viability, T/C [11] was 59.9%, the viability, T/C [36] was 65.9% and the viability, T/C [12] was 60.4%.
